Experimental findings from patent publication US20180346879A1, “GENERATION OF MUSCLE-LINEAGE CLELS FROM STEM CELLS” (GENEA IP HOLDINGS PTY LIMITED, priority 2015, published 2018) are described below.

What all share (type): cell-based
Experiment [1] deals with GENEA019 human embryonic stem cells. Description: Myogenic induction with Wnt pathway modulators, Hoechst and Pax3 staining. The following applies: modulator 1 μM in medium with Y-27632 10 μM and Alk5 inhibitor 2 μM; 9 days. How it is done: GENEA019 human embryonic stem cells were plated in Skeletal Muscle Cell Basal Medium (Lonza) with Skeletal Muscle Cell Growth Supplement (Lonza) and horse serum (5%) supplemented with Y-27632 (10 μM) and Alk5 inhibitor (2 μM), and a series of Wnt pathway modulators, including CHIR99021 (1 μM), AZD1080 (1 μM), IWP-L6 (1 μM), D4476 (1 μM), and AT13148 (1 μM). After 9 days in culture, cells were fixed and stained for DNA (Hoechst) and Pax3.

Experiment [2] deals with GENEA002, GENEA015, and GENEA019 human embryonic stem cell lines. Description: Myogenic induction in MCDB media with optional THI, FGF2 or LRRK2-IN-1, Hoechst, Pax3 and Pax7 staining. To be noted: 4 days; for cell proliferation (FIGS. 15A-F) / yield of Pax3/7-positive cells (FIGS. 15A-F): 5 μm THI or 5 ng/L FGF2 added to MCDB media, collagen I. As for the experimental part: GENEA002, GENEA015, and GENEA019 human embryonic stem cell lines were plated on collagen I-coated culture dishes in the following culture media:
4) MCDB FA ITS: same as MCDB FA with insulin/transferrin/selenium (ITS, 100×)
A control compound, 5 μm THI (2-acetyl-4(5)-(1,2,3,4-tetrahydroxybutyl)imidazole), or […] FGF2 was optionally added to the media. The LRRK2 inhibitor, LRRK2-IN-1 (1 μM), was optionally added to MCDB MinFA medium. Cells were fixed after 4 days and stained for DNA (Hoechst), Pax3 and Pax7.

Experiment [3] relates to GENEA019 and GENEA067 human embryonic stem cell lines. Description: Myogenic induction with or without LRRK2-IN-1, phase contrast microscopy. To be noted: LRRK2-IN-1 1 μM, suppresses flat contaminating cells with large cytoplasms. The source says: (§1) After 9 days, cells were fixed and stained for DNA (Hoechst) and Pax3.
The same experiment was repeated using GENEA019 and GENEA067 human embryonic stem cell lines. Cell populations were observed by phase contrast microscopy.

In experiment [4] the test system is GENEA015 and GENEA019 human embryonic stem cells. Kind of experiment: Kinase inhibitor dose range in myogenic induction, Hoechst and Pax7 staining. To be noted: dose range from 10 nM to 1 μM; 4 days; medium with Y-27632, CHIR99021, Alk5 inhibitor. As for the experimental part: In addition to LRRK2-IN-1, various other kinase inhibitors were tested in a dose range from 10 nM to 1 μM. Cells were fixed after 4 days and stained for DNA (Hoechst) and Pax7.

Experiment [5] relates to GENEA019 human embryonic stem cells. Kind of experiment: Myogenic induction with or without LRRK2-IN-1, Hoechst and Pax3 staining. The following applies: LRRK2-IN-1 1 μM added to medium with Y-27632, CHIR99021, Alk5 inhibitor; 9 days.
Excerpt: as §1

For experiment [6], the system named is GENEA019 human embryonic cells. Description: Myogenic induction on extracellular matrix molecules (collagen I, laminins), Hoechst and Pax7 staining. The following applies: plate coating; medium with Y-27632 10 μM, CHIR99021 3 μM, Alk5 inhibitor 2 μM; 9 days. The text has this: After 9 days, cells were fixed and stained for DNA (Hoechst) and Pax7.
The subject of experiment [7] is GENEA019 and GENEA067 human embryonic stem cells. Kind of experiment: Differentiation with continuous ROCK inhibition or with ROCK inhibitor removed after attachment. To be noted: Y-27632 (10 μM) removed one day after plating, compared with continuous presence. As for the experimental part:
Cells were either differentiated further in the same medium with media changes every other day, or one day after plating and after cells had attached, cells were changed to and maintained in the same culture medium but without the ROCK inhibitor, Y-27632 (10 μM).

Turning to `O=C(CSc1nc2c(c(=O)n1-c1ccccc1)SCC2)Nc1ccc(-c2ccccc2)cn1` [IWP-L6], the “myogenic induction / Pax3-positive cells (FIGS. 17A and 17B)” value in experiment [1] was “blocked myogenic induction”.
`CC(=O)c1ncc(C(O)C(O)C(O)CO)[nH]1` (stereo not shown) [THI, 2-acetyl-4(5)-(1,2,3,4-tetrahydroxybutyl)imidazole]: in experiment [2], the “cell proliferation (FIGS. 15A-F)” value is “neither THI nor FGF2 enhanced” and the “yield of Pax3/7-positive cells (FIGS. 15A-F)” value was “neither THI nor FGF2 enhanced”.
Take “FGF2: fibroblast growth factor family member”: in experiment [2], the “cell proliferation (FIGS. 15A-F)” value was “neither THI nor FGF2 enhanced” and the “yield of Pax3/7-positive cells (FIGS. 15A-F)” value is recorded as “neither THI nor FGF2 enhanced”.
Turning to `COc1cc(C(=O)N2CCC(N3CCN(C)CC3)CC2)ccc1Nc1ncc2c(n1)N(C)c1ccccc1C(=O)N2C` [LRRK2-IN-1], the “purity of cell populations (FIG. 14)” value in experiment [3] was “purer cell populations”. In addition, in experiment [2] (LRRK2-IN-1 1 μM added to MCDB MinFA medium), the “proportion of Pax3-positive and Pax7-positive cells (FIGS. 15A-F)” value is listed as “strong increase”. For the same compound, in experiment [4], the “formation of Pax7-positive cells (FIGS. 16A and 16B)” value is “strongly promoted the formation of Pax7-positive cells in a dose-dependent manner”. In experiment [5], the “cell proliferation (FIG. 13A)” value is reported as “promoted cell proliferation” and the “expression of Pax3 (FIG. 13B)” value is “increased expression of Pax3”.
For the compound “laminin 521: extracellular matrix molecule coating tissue culture plates”, in experiment [6], the “Pax7-positive satellite-like cell sub population (FIG. 12A)” value is reported as “favor a satellite-like cell sub population that is Pax7-positive” and the “cell proliferation (FIG. 12B)” value is listed as “promote cell proliferation”.
As for `C[C@@H](N)[C@H]1CC[C@H](C(=O)Nc2ccncc2)CC1` [Y-27632], in experiment [7], the “cell growth without continuous ROCK inhibition (FIG. 18)” value is given as “significantly growth retarded” and the “cell population homogeneity during differentiation without continuous ROCK inhibition” value was “highly heterogeneous cell populations”.
With `N#Cc1ccc2[nH]c(O)c(-c3ccc(CN4CCOCC4)cn3)c2c1` [AZD1080], the “myogenic induction / Pax3-positive cells (FIGS. 17A and 17B)” value in experiment [1] was “promoted myogenic induction and resulted in Pax3-positive cells”.
The same measure, in the same setting: for `Cc1c[nH]c(-c2cnc(NCCNc3ccc(C#N)cn3)nc2-c2ccc(Cl)cc2Cl)n1` [CHIR99021] the value was “promoted myogenic induction and resulted in Pax3-positive cells”.
